No end group written: not given here.
Tests used:
[1] = tested on: HLA-DR on the surface of EBV-transformed B cells; assay: Direct binding of FITC-labeled TP5 to EBV-transformed B cells (flow cytometry); design: species or system human
Procedure: Therefore, a quantitative flow cytometric assay was used to get a better insight into the binding affinity of TP5 to HLA-DR on the surface of EBV-transformed B cells. […] Simultaneously, a correlation with R^2 = 0.9903 and a slope of 0.01311 were obtained. We then compared the specific binding of FITC-labeled TP5 to HLA-DR.
EBV-transformed B cells expressing HLA-DR molecules were maintained in RPMI 1640 containing 2 mM L-glutamine (HyClone Laboratories, UT, USA) supplemented with 10% standard FBS (HyClone Laboratories, UT, USA) at 37°C and in 5% CO2. Expression of HLA-DR was verified using mAb-DR L243 labeled with FITC (Pharmingen, San Diego, USA), by incubation for 45 min on ice followed by CLSM and FCM.
EBV-transformed B cells (3×10^5 per sample) were incubated with various concentrations of FITC-labeled TP5 in binding buffer for 2 h at 37°C. Thereafter, the cells were washed twice and resuspended in 500 µl PBS, followed by flow cytometric analysis using a FACSCan analyzer (Becton Dickinson Immunochemical Systems, Mountain View, USA). A total of ten thousand events were acquired for each sample. The MFI was used to evaluate the binding ability of FITC-labeled TP5 to APC.

[2] = tested on: EBV-transformed B cells expressing HLA-DR; assay: Cellular peptide loading assay (CLSM uptake); assay type: cell-based, human; conditions: 10 µM, 2 h at 37°C, excitation 488 nm
Procedure: To validate the ability of FITC-labeled TP5 to load on EBV-transformed B cells expressing HLA-DR, a qualitative CLSM assay was used to examine the fluorescent signal of EBV-transformed B cells. The surface fluorescence was hardly observed from the cells in the absence of FITC-labeled TP5 at the excitation of 488 nm (Fig. 1A).
We harvested 3×10^5 cells, washed twice with phosphate-buffered saline (PBS) buffer (pH 7.4) supplemented with 0.1% BSA and 0.05% NaN3. Ten µM FITC- labeled TP5 was added to the treated cells in PBS (pH 7.4) containing 1% BSA (binding buffer), then incubated for 2 h at 37°C. Thereafter, the cells were washed twice and resuspended in 500 µl PBS, followed by CLSM analysis using Leica Microsystems (TCS SP2, Heidelberg, Germany).

## FITC-labeled TP5: TP5 conjugated with fluorescein isothiocyanate (FITC) (RKDVY; also: FITC label, position not given here)
[1]; flow cytometry histogram of fluorescence intensities, EBV-transformed B cells (Fig. 4)
  cells stained above the background: 94%
[1]; flow cytometry, EBV-transformed B cells versus PBS alone (Fig. 4)
  increase in mean fluorescence intensity (MFI) above background: approximately 3 orders of magnitude
[2]
  surface fluorescence of cells (uptake): strong surface fluorescence

Source: PMC2137936, “Molecular Analysis of Thymopentin Binding to HLA-DR Molecules” (PLoS ONE, 2007)
